According to ChEMBL document CHEMBL1909046, “DrugMatrix in vitro pharmacology data”:

What was measured:
[1] = target: T1, Alpha-1A adrenergic receptor (Rattus norvegicus, UniProt P43140); test: DRUGMATRIX: Alpha-1A adrenergic receptor radioligand binding (ligand: prazosin); format: cell membranes, Wistar, Submaxillary gland, Membrane; conditions: Not Active = under 50% inhibition at 10 µM
T1 sequence (P43140 whole entry): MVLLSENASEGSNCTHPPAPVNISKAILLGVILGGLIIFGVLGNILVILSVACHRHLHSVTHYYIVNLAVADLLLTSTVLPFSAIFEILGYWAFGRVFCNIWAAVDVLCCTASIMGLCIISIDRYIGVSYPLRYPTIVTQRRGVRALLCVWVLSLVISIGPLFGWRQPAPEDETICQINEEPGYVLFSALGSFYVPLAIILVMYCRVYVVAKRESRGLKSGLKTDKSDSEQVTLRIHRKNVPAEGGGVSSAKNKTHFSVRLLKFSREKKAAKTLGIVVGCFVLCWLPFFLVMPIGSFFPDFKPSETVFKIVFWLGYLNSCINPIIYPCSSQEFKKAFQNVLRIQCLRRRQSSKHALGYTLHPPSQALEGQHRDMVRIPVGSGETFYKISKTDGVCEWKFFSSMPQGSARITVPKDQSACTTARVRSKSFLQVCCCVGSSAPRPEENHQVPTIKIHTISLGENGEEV

[2] = target: Sigma non-opioid intracellular receptor 1 (Homo sapiens, UniProt Q99720); test: DRUGMATRIX: Sigma1 radioligand binding (ligand: [3H] Haloperidol); format: cell membranes, Jurkat, Membrane; conditions: Not Active = under 50% inhibition at 10 µM; for Ki: read-out: Ki
Chain of Sigma non-opioid intracellular receptor 1 (Q99720 whole entry): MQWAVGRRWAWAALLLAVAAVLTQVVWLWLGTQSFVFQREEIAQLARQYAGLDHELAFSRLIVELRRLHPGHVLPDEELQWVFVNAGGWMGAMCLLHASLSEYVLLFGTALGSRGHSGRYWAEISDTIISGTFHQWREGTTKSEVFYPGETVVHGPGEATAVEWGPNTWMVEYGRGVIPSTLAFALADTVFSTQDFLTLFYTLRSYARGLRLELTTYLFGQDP

[3] = DRUGMATRIX: GABAA, Chloride Channel, TBOB radioligand binding (ligand: [3H] TBOB); format: cell membranes, Rattus norvegicus, Wistar, Cerebral cortex, Membrane; conditions: Not Active = under 50% inhibition at 10 µM
[4] = target: Protein phosphatase 3 catalytic subunit alpha (Homo sapiens, UniProt Q08209); set-up: species or system Escherichia coli;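 note: inhibition of calcineurin (PP2B) enzyme activity, measured with DiFMUP as the substrate; in other assays of this panel Not Active means under 50% inhibition at 10 µM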
[5] = target: Tyrosine-protein kinase Lck (Homo sapiens, UniProt P06239); test: DRUGMATRIX: Protein Tyrosine Kinase, LCK enzyme inhibition (substrate: Poly(Glu:Tyr)); format: cell-based, Insect cells; conditions: insect cells; Not Active = under 50% inhibition at 10 µM
Chain of Tyrosine-protein kinase Lck (P06239 whole entry): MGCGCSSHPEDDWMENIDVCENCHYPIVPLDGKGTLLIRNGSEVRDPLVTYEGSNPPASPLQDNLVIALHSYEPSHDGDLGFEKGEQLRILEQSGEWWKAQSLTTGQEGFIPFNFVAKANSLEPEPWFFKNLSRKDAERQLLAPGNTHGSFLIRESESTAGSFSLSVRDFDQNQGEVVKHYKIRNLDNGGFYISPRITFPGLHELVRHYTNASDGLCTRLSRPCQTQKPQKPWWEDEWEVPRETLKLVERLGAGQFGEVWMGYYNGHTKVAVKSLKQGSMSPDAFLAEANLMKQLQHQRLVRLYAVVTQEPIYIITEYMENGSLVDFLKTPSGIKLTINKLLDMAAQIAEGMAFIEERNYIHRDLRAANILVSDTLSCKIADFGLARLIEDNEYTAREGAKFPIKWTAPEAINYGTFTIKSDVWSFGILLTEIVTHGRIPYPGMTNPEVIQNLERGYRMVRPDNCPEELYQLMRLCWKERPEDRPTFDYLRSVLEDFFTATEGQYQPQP

[6] = target: Cytochrome P450 2E1 (Homo sapiens, UniProt P05181); conditions: bti-tn-5b1-4; note: in other assays of this panel Not Active means under 50% inhibition at 10 µM
Chain of Cytochrome P450 2E1 (P05181 whole entry): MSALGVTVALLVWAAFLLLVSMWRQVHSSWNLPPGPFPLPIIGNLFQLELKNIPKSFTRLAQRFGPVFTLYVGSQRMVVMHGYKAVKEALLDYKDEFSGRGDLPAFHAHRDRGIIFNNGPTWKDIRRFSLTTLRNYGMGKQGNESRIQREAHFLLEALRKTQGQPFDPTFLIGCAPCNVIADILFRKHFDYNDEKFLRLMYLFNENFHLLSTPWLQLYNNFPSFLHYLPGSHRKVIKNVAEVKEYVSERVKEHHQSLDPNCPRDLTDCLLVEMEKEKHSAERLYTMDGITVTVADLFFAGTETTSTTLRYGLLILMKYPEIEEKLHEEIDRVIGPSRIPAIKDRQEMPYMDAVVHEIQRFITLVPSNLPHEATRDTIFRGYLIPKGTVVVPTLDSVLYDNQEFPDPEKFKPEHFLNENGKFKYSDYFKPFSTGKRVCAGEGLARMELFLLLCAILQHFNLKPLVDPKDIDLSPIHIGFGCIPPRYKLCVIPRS

[7] = target: T2, Estrogen receptor (Homo sapiens, UniProt P03372); conditions: sf9; note: in other assays of this panel Not Active means under 50% inhibition at 10 µM
T2 sequence (P03372 whole entry): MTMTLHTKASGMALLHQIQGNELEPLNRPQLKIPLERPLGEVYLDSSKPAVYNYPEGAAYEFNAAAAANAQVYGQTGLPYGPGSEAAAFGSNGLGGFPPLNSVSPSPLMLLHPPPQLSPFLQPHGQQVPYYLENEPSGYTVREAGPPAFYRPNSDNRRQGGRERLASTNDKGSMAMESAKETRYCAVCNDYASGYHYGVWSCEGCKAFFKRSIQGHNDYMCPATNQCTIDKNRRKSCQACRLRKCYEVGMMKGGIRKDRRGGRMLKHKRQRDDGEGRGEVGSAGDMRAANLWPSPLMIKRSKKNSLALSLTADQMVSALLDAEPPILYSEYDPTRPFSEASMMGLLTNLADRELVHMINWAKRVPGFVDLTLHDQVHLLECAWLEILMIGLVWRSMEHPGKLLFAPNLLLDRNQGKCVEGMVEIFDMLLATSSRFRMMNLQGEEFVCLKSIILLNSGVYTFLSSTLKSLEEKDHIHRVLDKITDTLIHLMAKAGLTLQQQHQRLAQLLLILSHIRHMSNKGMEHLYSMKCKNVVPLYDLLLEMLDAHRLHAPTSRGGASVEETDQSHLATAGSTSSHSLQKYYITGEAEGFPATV

Row | Structure (SMILES) | IC50 [1] | IC50 ([2]; jurkat) | IC50 [3] | Ki [3] | IC50 [4] | IC50 [5] | IC50 [6] | Ki [6] | IC50 [7] | IC50 ([2]; read-out: IC50) | Ki [2]
1 | CCN1CCC[C@H]1CNC(=O)c1cc(S(N)(=O)=O)ccc1OC [LEVOSULPIRIDE] | Not Active | Not Active | Not Active | Not Active | Not Active | Not Active | Not Active | Not Active | – | – | –
2 | CCN(CC)CC(=O)Nc1c(C)cccc1C [LIDOCAINE] | Not Active | Not Active | Not Active | Not Active | Not Active | Not Active | Not Active | Not Active | – | – | –
3 | O=C1Nc2ccc(Cl)cc2C(c2ccccc2Cl)=NC1O (stereo not drawn) [LORAZEPAM] | Not Active | Not Active | Not Active | Not Active | Not Active | Not Active | Not Active | Not Active | Not Active | – | –
4 | COc1c2occc2cc2ccc(=O)oc12 [METHOXSALEN] | Not Active | Not Active | Not Active | Not Active | Not Active | Not Active | Not Active | Not Active | – | – | –
5 | C[C@H]1C[C@@H]2[C@H]([C@@H](O)C[C@@]3(C)[C@H]2CC[C@]3(O)C(=O)CO)[C@@]2(C)C=CC(=O)C=C12 [METHYLPREDNISOLONE] | Not Active | Not Active | Not Active | Not Active | Not Active | Not Active | Not Active | Not Active | – | – | –
6 | CC[C@@H](C(=O)[C@@H](C)[C@@H](O)[C@H](C)[C@@H]1O[C@@H]([C@@H](CC)C(=O)O)CC[C@@H]1C)[C@H]1O[C@]2(C=C[C@@H](O)[C@]3(CC[C@@](C)([C@H]4CC[C@](O)(CC)[C@H](C)O4)O3)O2)[C@H](C)C[C@@H]1C [SALINOMYCIN] | Not Active | Not Active | Not Active | Not Active | Not Active | Not Active | Not Active | Not Active | – | – | –
7 | O=C(O)c1cn(-c2ccc(F)cc2)c2cc(N3CCNCC3)c(F)cc2c1=O [SARAFLOXACIN] | Not Active | Not Active | Not Active | Not Active | Not Active | Not Active | Not Active | Not Active | – | – | –
8 | CN[C@H]1CC[C@@H](c2ccc(Cl)c(Cl)c2)c2ccccc21 [SERTRALINE] | Not Active | – | – | – | Not Active | Not Active | Not Active | Not Active | Not Active | – | –
9 | CC(C)NCC(O)c1ccc(NS(C)(=O)=O)cc1 (stereo not drawn) [SOTALOL] | Not Active | Not Active | Not Active | Not Active | Not Active | Not Active | Not Active | Not Active | – | – | –
10 | O.O.O.O.O.O.[Cl-].[Cl-].[Sr+2] [STRONTIUM CHLORIDE HEXAHYDRATE] | Not Active | Not Active | Not Active | Not Active | Not Active | Not Active | Not Active | Not Active | – | – | –
11 | COc1cc2nc(N3CCN(C(=O)C4CCCO4)CC3)nc(N)c2cc1OC (stereo not drawn) [TERAZOSIN] | – | Not Active | Not Active | Not Active | Not Active | Not Active | Not Active | Not Active | Not Active | – | –
12 | CN(C/C=C/C#CC(C)(C)C)Cc1cccc2ccccc12 [TERBINAFINE] | Not Active | – | Not Active | Not Active | Not Active | Not Active | Not Active | Not Active | – | 560 nM | 235 nM
13 | CCCCNc1ccc(C(=O)OCCN(C)C)cc1 [TETRACAINE] | Not Active | – | Not Active | Not Active | Not Active | Not Active | Not Active | Not Active | – | 1670 nM | 703 nM
14 | Cn1c(=O)c2nc[nH]c2n(C)c1=O.O [THEOPHYLLINE] | Not Active | Not Active | Not Active | Not Active | Not Active | Not Active | Not Active | Not Active | – | – | –
